In publication PMC4471902, “Block of NMDA receptor channels by endogenous neurosteroids: implications for the agonist induced conformational states of the channel vestibule” (Scientific Reports, 2015):
Values joined by “and” are separate entries in the source; they are usually repeats but may differ in a detail not shown here. Equal values may be shown once. Where a name gives a salt, the structure may show the parent alone. Read-outs that look alike come from different tables or passages of the source.

What was measured:
GluN1/GluN2B receptors = target: T1, GluN1/GluN2B receptors (Rattus norvegicus, UniProt P35439+Q00960); assay: Whole-cell patch-clamp of GluN1/GluN2B receptor responses in transfected HEK293 cells; format: cell-based
T1 construct: expressed in transfected cells; host or cells: HEK293
T1 sequence (Q00960 27-1482, other chains not shown): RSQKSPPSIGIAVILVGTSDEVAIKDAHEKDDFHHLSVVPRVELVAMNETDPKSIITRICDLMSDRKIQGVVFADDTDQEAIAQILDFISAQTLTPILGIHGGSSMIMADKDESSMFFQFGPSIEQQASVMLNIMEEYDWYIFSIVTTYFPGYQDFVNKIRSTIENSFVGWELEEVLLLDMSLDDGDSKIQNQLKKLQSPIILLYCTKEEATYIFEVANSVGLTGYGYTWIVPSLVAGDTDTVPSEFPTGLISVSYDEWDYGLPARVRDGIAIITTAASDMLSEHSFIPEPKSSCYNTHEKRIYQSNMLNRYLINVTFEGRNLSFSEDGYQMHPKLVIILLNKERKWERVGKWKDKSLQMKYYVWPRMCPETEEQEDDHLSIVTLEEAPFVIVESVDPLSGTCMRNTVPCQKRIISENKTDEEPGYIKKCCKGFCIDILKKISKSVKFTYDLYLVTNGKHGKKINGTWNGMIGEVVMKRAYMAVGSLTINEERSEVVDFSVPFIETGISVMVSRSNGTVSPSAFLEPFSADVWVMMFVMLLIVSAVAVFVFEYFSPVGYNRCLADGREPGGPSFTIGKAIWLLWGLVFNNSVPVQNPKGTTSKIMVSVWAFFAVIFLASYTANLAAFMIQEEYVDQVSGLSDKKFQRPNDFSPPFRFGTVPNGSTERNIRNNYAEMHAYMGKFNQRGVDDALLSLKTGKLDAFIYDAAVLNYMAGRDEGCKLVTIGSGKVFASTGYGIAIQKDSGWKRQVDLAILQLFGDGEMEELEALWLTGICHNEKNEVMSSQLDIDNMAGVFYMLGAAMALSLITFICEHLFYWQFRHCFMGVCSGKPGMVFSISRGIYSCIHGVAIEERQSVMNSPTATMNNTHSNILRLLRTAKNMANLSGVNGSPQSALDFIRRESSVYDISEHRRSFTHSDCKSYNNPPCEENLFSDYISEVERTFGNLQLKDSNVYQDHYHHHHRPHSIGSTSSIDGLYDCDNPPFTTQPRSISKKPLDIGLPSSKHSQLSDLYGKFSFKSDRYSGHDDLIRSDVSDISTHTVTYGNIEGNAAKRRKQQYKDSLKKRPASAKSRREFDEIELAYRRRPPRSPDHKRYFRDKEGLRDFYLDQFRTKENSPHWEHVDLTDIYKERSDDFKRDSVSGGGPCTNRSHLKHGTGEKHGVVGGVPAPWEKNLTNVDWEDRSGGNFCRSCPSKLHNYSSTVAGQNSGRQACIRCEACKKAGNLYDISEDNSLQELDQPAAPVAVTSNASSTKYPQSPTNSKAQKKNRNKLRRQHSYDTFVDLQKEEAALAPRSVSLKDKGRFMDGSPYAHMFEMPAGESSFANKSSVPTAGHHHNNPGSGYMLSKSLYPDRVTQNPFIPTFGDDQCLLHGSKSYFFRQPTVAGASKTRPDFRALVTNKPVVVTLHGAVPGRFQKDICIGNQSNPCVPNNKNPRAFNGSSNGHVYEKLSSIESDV
Source text: (§1) Human embryonic kidney (HEK293) cells were transfected with expression vectors containing: GluN1–1a (GenBank accession number U08261)[52]; GluN2B (GenBank accession number M91562); GluN1-4a(F484A), (generous gift from Dr. J. J. Woodward)[53] (Smothers & Woodward, 2009); GluN3A (generous gift from Dr. S. A. Lipton)[54] (GenBank accession number NM_138546); GluN1ΔN with deleted 354 amino acids in the NTD (32 to 386); GluN1ΔC with an introduced stop codon in 838 of the CTD GluN2BΔN) with deleted 354 amino acids in the NTD (32 to 386); GluN2BΔC with an introduced stop codon in 844 of the CTD[55]; GluR0 (GenBank accession number Synechocystis PCC 6803) (generous gift from Dr. M. L. Mayer)[18]; and green fluorescent protein (GFP) (pQBI 25, Takara, Tokyo, Japan) genes, as described previously. The Quick-Change site-directed mutagenesis kit (Agilent Technologies, Santa Clara, CA, USA) was used to generate specific point mutations in the M1/M3 region according to the manufacturer’s instructions using manually designed primers purchased from Sigma. Modified DNA plasmids were transformed into competent XL10-Gold E.coli cells, positive clones were selected, and isolated DNA was sequenced. […] All mutations were verified by DNA sequencing (Macrogen, Seoul, Korea or SeQme, Dobris, Czech Republic). The amino acids are numbered according to the full-length protein, including the signal peptide, with the initiating methionine as 1.
(§2) Experiments were performed 24–48 hrs after transfection on cells transfected with GluN1/GluN2B/GFP plasmids. Whole-cell voltage-clamp recordings from HEK293 cells were made with a patch-clamp amplifier (Axopatch 200B; Axon Instruments, Inc., Foster City, CA) after a capacitance and series resistance (<10 MΩ) compensation of 80–90%.
(§3) Patch pipettes (3–5 MΩ) were filled with a solution containing (in mM): 120 gluconic acid, 15 CsCl, 10 BAPTA, 10 HEPES, 3 MgCl2, 1 CaCl2, and 2 ATP-Mg salt (pH-adjusted to 7.2 with CsOH). When GluR0 receptor responses were studied, intracellular solution contained (in mM): 120 gluconic acid, 15 KCl, 10 BAPTA, 10 HEPES, 3 MgCl2, 1 CaCl2, and 2 ATP-Mg salt (pH-adjusted to 7.2 with KOH). Extracellular solution (ECS) contained the following (in mM): 160 NaCl, 2.5 KCl, 10 HEPES, 10 glucose, 0.2 EDTA, and 0.7 CaCl2 (pH-adjusted to 7.3 with NaOH). Glycine (10 μM), an NMDAR co-agonist, was present in the control and test solutions. All (PA-S and PA-A) solutions were made from freshly prepared 20 mM PA-S and 5 mM PA-A stock in dimethyl sulfoxide (DMSO). The final dilution to ECS was made at 50 °C and followed by 1 min sonication (SONOREX DIGITEC DT 100/H, BADELIN electronic, Berlin, Germany). The same concentration of DMSO was added to all extracellular solutions. Drug applications were made with a microprocessor-controlled multibarrel fast-perfusion system. Changes in the glutamate-induced current in HEK293 cells transfected by GluN1/GluN2B subunits were used to estimate the rate of solution exchange around the cell. Standard ECS was switched to the ECS diluted by water (50%) during glutamate application. The osmolarity was adjusted by sucrose to match the standard ECS. Glutamate (1 mM), glycine (10 μM) and pH was maintained constant in both solutions. The solution exchange rate was estimated to be τ = 4.3 ± 0.3 ms (n = 6) for lifted cells and τ = 12.0 ± 0.9 ms (n = 6) for the attached cells.
Experiments were performed at room temperature (21–25 °C). Data were collected (low-pass filtered at 2 kHz and sampled at 10 kHz) and analyzed using pClamp 10 (Molecular Devices). Unless otherwise mentioned, error bars represent SEM; statistical comparison of groups was performed using Student’s t-test (p < 0.05 was used to determine the significance).
(§4) The IC50 was determined from a single dose of a steroid using the formula [drawing 1] where I is the relative degree of inhibition and [steroid] is the steroid concentration used. […]

[1] = tested on: GluR0 (potassium-selective prokaryotic glutamate receptor); assay: Whole-cell patch-clamp of GluR0 receptor responses in transfected HEK293 cells; format: cell-based, Synechocystis PCC 6803; settings: 1 mM glutamate, PA-S 300 µM
Source text: as §1, with “The amino acids are numbered according to the full-length protein, including the signal peptide, with the initiating methionine as 1.” left out

[2] = target: T2, GluN1(T648A)/GluN2B receptors (Rattus norvegicus, UniProt P35439+Q00960, T648A); assay: Whole-cell patch-clamp of GluN1(T648A)/GluN2B receptor responses in HEK293 cells; format: cell-based; settings: for inhibition at 200 µM: HEK293, PA-S 200 μM
T2 construct: expressed in transfected cells; host or cells: HEK293
T2 sequence (Q00960 27-1482, other chains not shown): as above
Source text: as §1, §2, §3
as §4, with “used. Calculations of IC50 were made assuming 100% inhibition at saturating steroid concentration this is valid for both PA-S and PA-A[12][13].” for “used.”

[3] = 150 μM PA-S co-applied with 1 mM glutamate, 10 μM glycine, attached HEK293 cells
[4] = lifted HEK293 cells, 150 μM PA-S co-application with glutamate
[5] = lifted HEK293 cells, 150 μM PA-S wash

With `CC(=O)[C@H]1CC[C@H]2[C@@H]3CC[C@@H]4C[C@H](OS(=O)(=O)O)CC[C@]4(C)[C@H]3CC[C@]12C` [PA-S, 20-oxo-5β-pregnan-3α-yl sulfate] the “onset of response to glycine Af” value (GluN1/GluN2B receptors) was 84 ± 5%, the “onset of response to glycine τf” value (GluN1/GluN2B receptors) was 29 ± 3 ms and the “onset of response to glycine τs” value (GluN1/GluN2B receptors) was 280 ± 72 ms. For the same compound, the “onset of inhibition Af” value (GluN1/GluN2B receptors; [3]) was 75 ± 3%, the “onset of inhibition τf” value (GluN1/GluN2B receptors; [3]) was 30 ± 2 ms and the “onset of inhibition τs” value (GluN1/GluN2B receptors; [3]) was 579 ± 92 ms. For the same compound, the “recovery from inhibition (offset) τs” value (GluN1/GluN2B receptors; 150 μM PA-S, 1 mM glutamate, 10 μM glycine, attached HEK293 cells) was 536 ± 79 ms, the “intercept of linear fit of mean inhibition versus holding potential” value (GluN1/GluN2B receptors; PA-S 200 µM, 1 mM glutamate, WT) was 85.2 and the “voltage dependence of steroid inhibition” value (GluN1/GluN2B receptors; WT GluN1/GluN2B) was “voltage independent”. For the same compound, the mode of inhibition (GluN1/GluN2B receptors; dependence on receptor activation by agonists) was “use-dependent”, the “time constant of the slow rate of recovery from inhibition” value (GluN1/GluN2B receptors; glutamate and steroid co-application for 30 s) was 902 ± 201 ms and the “onset of the response to glutamate application (10–90%)” value (GluN1/GluN2B receptors; immediately after 30 s PA-S (150 μM) pre-application in the absence of glutamate) was 18.4 ± 1.6 ms. The “onset of inhibition As” value (GluN1/GluN2B receptors; [4]) was 20 ± 4%, the “onset of inhibition τf” value (GluN1/GluN2B receptors; [4]) was 10.8 ± 2.2 ms and the “onset of inhibition τs” value (GluN1/GluN2B receptors; [4]) was 480 ± 108 ms. For the same compound, the “off rate As” value (GluN1/GluN2B receptors; [5]) was 65% and 41 ± 6%, the “off rate τf” value (GluN1/GluN2B receptors; [5]) was 16 ms and 14.3 ± 1.7 ms and the “off rate τs” value (GluN1/GluN2B receptors; [5]) was 367 ms and 311 ± 70 ms. For the same compound, the “effect on glutamate-induced responses” value [1] was “inhibited”, the IC50 [2] was 758 ± 27 µM and the “voltage dependence of steroid inhibition” value [2] was “voltage independent”. For the same compound, the inhibition at 200 µM ([2]; read-out: degree of inhibition of agonist-evoked currents) was 13.6 ± 0.9%, the inhibition at 200 µM ([2]; read-out: degree of inhibition of spontaneous currents) was 13.8 ± 0.7% and the “intercept of linear fit of mean inhibition versus holding potential” value ([2]; PA-S 200 µM, 1 mM glutamate) was 15.8.
